Laboratory results: patent US20160272617A1, “SUBSTITUTED PHENYLALANINE DERIVATIVES” (BAYER PHARMA AKTIENGESELLSCHAFT, priority 2013, published 2016)
Structures can show the parent of a compound that is named as a salt.

Legend:
human factor XIa = biological target: T1, human factor XIa (Homo sapiens, UniProt P03951); assay: Measurement of FXIa inhibition (fluorogenic peptide substrate Boc-Glu(OBzl)-Ala-Arg-AMC); format: biochemical; conditions: factor XIa from Kordia, 15 min preincubation, 30 min at 22° C., fluorescence
T1 construct: purchased Kordia
T1 sequence (P03951 388-625 limits assumed): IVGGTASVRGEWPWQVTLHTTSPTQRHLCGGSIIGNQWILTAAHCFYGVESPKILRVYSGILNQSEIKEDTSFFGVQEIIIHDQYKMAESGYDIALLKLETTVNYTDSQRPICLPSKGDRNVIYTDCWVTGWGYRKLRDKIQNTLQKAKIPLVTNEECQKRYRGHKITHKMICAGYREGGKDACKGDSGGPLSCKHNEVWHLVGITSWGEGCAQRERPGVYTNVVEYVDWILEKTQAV
T1 sequence (P03951 19-387 partner limits assumed): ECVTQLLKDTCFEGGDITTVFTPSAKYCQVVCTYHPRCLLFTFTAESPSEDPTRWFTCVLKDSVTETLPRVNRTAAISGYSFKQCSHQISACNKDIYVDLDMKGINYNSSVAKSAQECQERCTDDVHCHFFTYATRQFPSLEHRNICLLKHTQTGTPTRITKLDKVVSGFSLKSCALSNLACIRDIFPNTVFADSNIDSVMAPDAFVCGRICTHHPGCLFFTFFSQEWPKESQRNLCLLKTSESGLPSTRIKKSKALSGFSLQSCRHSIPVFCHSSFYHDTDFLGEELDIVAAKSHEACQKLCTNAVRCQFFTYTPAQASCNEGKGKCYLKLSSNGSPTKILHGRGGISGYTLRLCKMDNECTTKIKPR
Procedure, shortened: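 Released AMC fluorescence (360/460 nm) read after 30 min at 22 °C. The reaction was started with Boc-Glu(OBzl)-Ala-Arg-AMC (10 μM stock) after a 15 min preincubation of the enzyme (0.45 nM stock) with compound (final 50 μM to 0.00013 μM).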

human and animal plasma = assay: Determination of anticoagulatory activity: activated partial thromboplastin time (aPTT) in plasma; conditions: concentration of test substance which brings about a 1.5-fold extension of the aPTT; plasma species not given
Procedure, shortened: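 Citrated plasma (1:9, 0.11 M citrate; 4000 g, 15 min) from human or animal blood incubated with test compound and cephalin/kaolin PTT reagent for 3 min at 37° C.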

| Structure (SMILES) | IC50 (human factor XIa) [nM] | aPTT (human and animal plasma) [µmol/L] |
| --- | --- | --- |
| Cc1cc(C(=O)NC2CCC(N(C)C)CC2)ccc1-c1ccc(CC(NC(=O)[C@H]2CC[C@H](CN)CC2)C(=O)Nc2ccc(-c3nc(C(F)(F)C(F)(F)C(=O)O)n[nH]3)cc2)cc1 (stereo partly drawn) [Example 101, 3-[5-(4-{[(2S)-2-({[trans-4-(Aminomethyl)cyclohexyl]carbonyl}amino)-3-(4′-{[4-(dimethyl-amino)cyclohexyl]carbamoyl}-2′-methylbiphenyl-4-yl)propanoyl]amino}phenyl)-1H-1,2,4-triazol-3-yl]-2,2,3,3-tetrafluoropropanoic acid hydrochloride] | 1.1 | 0.07 |
| Cc1cc(C(=O)N[C@@H]2C[C@@H](CO)NC2=O)ccc1-c1ccc(C[C@H](NC(=O)[C@H]2CC[C@H](CN)CC2)C(=O)Nc2ccc(-c3nc(C(F)(F)C(F)(F)C(=O)O)n[nH]3)cc2)cc1 [Example 106, 3-[5-(4-{[(2S)-2-({[trans-4-(Aminomethyl)cyclohexyl]carbonyl}amino)-3-(4′-{[(3R,5S)-5-(hydroxymethyl)-2-oxopyrrolidin-3-yl]carbamoyl}-2′-methylbiphenyl-4-yl)propanoyl]amino}-phenyl)-1H-1,2,4-triazol-3-yl]-2,2,3,3-tetrafluoropropanoic acid hydrochloride] | 1.1 | 0.11 |
| Cc1cc(C(=O)NC2CCNCC2(C)C)ccc1-c1ccc(C[C@H](NC(=O)[C@H]2CC[C@H](CN)CC2)C(=O)Nc2ccc(-c3nnc(C(F)(F)C(F)(F)C(=O)O)[nH]3)cc2)cc1 (stereo partly drawn) [Example 107, 3-[5-(4-{[(2S)-2-({[trans-4-(Aminomethyl)cyclohexyl]carbonyl}amino)-3-{4′-[(3,3-dimethylpiperidin-4-yl)carbamoyl]-2′-methylbiphenyl-4-yl}propanoyl]amino}phenyl)-4H-1,2,4-triazol-3-yl]-2,2,3,3-tetrafluoropropanoic acid hydrochloride] | 1.4 | 0.1 |
| Cc1cc(C(=O)NCC2CCN(C)CC2)ccc1-c1ccc(C[C@H](NC(=O)[C@H]2CC[C@H](CN)CC2)C(=O)Nc2ccc(-c3nnc(C(F)(F)C(F)(F)C(=O)O)[nH]3)cc2)cc1 [Example 108, 3-[5-(4-{[(2S)-2-({[trans-4-(Aminomethyl)cyclohexyl]carbonyl}amino)-3-(2′-methyl-4′-{[(1-methylpiperidin-4-yl)methyl]carbamoyl}biphenyl-4-yl)propanoyl]amino}phenyl)-4H-1,2,4-triazol-3-yl]-2,2,3,3-tetrafluoropropanoic acid hydrochloride] | 1.9 | 0.07 |
| Cc1cc(C(=O)NC2CCN(C)CC2)ccc1-c1ccc(C[C@H](NC(=O)[C@H]2CC[C@H](CN)CC2)C(=O)Nc2ccc(-c3nc(C(F)(F)C(F)(F)CO)n[nH]3)cc2)cc1 [Example 109, 4′-[(2S)-2-({[trans-4-(Aminomethyl)cyclohexyl]carbonyl}amino)-3-oxo-3-({4-[3-(1,1,2,2-tetrafluoro-3-hydroxypropyl)-1H-1,2,4-triazol-5-yl]phenyl}amino)propyl]-2-methyl-N-(1-methylpiperidin-4-yl)biphenyl-4-carboxamide hydrochloride] | 3 | 0.11 |
| Cc1cc(C(=O)N[C@H]2CC[C@H](O)CC2)ccc1-c1ccc(C[C@H](NC(=O)[C@H]2CC[C@H](CN)CC2)C(=O)Nc2ccc(-c3nc(C(F)(F)C(F)(F)CO)n[nH]3)cc2)cc1 [Example 110, 4′-[(2S)-2-({[trans-4-(Aminomethyl)cyclohexyl]carbonyl}amino)-3-oxo-3-({4-[3-(1,1,2,2-tetrafluoro-3-hydroxypropyl)-1H-1,2,4-triazol-5-yl]phenyl}amino)propyl]-N-(trans-4-hydroxycyclohexyl)-2-methylbiphenyl-4-carboxamide hydrochloride] | 1.8 | 0.11 |
| NC[C@H]1CC[C@H](C(=O)N[C@@H](Cc2ccc(-c3ccc(C(=O)N[C@@H]4CCCNC4=O)c(F)c3)cc2)C(=O)Nc2ccc(-c3n[nH]c(C(F)(F)C(F)(F)C(=O)O)n3)cc2)CC1 [Example 111, 3-[3-(4-{[(2S)-2-({[trans-4-(Aminomethyl)cyclohexyl]carbonyl}amino)-3-(3′-fluoro-4′-{[(3R)-2-oxopiperidin-3-yl]carbamoyl}biphenyl-4-yl)propanoyl]amino}phenyl)-1H-1,2,4-triazol-5-yl]-2,2,3,3-tetrafluoropropanoic acid hydrochloride] | 1 | 0.13 |
| NC[C@H]1CC[C@H](C(=O)N[C@@H](Cc2ccc(-c3ccc(C(=O)N[C@H]4CC[C@H](O)CC4)c(F)c3)cc2)C(=O)Nc2ccc(-c3n[nH]c(C(F)(F)C(F)(F)C(=O)O)n3)cc2)CC1 [Example 112, 3-[3-(4-{[(2S)-2-({[trans-4-(Aminomethyl)cyclohexyl]carbonyl}amino)-3-{3′-fluoro-4′-[(trans-4-hydroxycyclohexyl)carbamoyl]biphenyl-4-yl}propanoyl]amino}phenyl)-1H-1,2,4-triazol-5-yl]-2,2,3,3-tetrafluoropropanoic acid hydrochloride] | 2 | 0.17 |
| Cc1cc(C(=O)N(C)C2CCN(C)CC2)ccc1-c1ccc(C[C@H](NC(=O)[C@H]2CC[C@H](CN)CC2)C(=O)Nc2ccc(-c3nnc(C(F)(F)C(F)(F)C(=O)O)[nH]3)cc2)cc1 [Example 113, 3-[5-(4-{[(2S)-2-({[trans-4-(Aminomethyl)cyclohexyl]carbonyl}amino)-3-{2′-methyl-4′-[methyl(1-methylpiperidin-4-yl)carbamoyl]biphenyl-4-yl}propanoyl]amino}phenyl)-4H-1,2,4-triazol-3-yl]-2,2,3,3-tetrafluoropropanoic acid hydrochloride] | 4.9 | 0.07 |
| Cc1cc(C(=O)NCC(=O)N2CCC(N(C)C)CC2)ccc1-c1ccc(C[C@H](NC(=O)[C@H]2CC[C@H](CN)CC2)C(=O)Nc2ccc(-c3nnc(C(F)(F)C(F)(F)C(=O)O)[nH]3)cc2)cc1 [Example 114, 3-{5-[4-({(2S)-2-({[trans-4-(Aminomethyl)cyclohexyl]carbonyl}amino)-3-[4′-{(2-[4-(dimethylamino)piperidin-1-yl]-2-oxoethyl}carbamoyl)-2′-methylbiphenyl-4-yl]propanoyl}-amino)phenyl]-4H-1,2,4-triazol-3-yl}-2,2,3,3-tetrafluoropropanoic acid hydrochloride] | 2.6 | 0.14 |
| Cc1cc(C(=O)NC2CCC3NCCC32)ccc1-c1ccc(C[C@H](NC(=O)[C@H]2CC[C@H](CN)CC2)C(=O)Nc2ccc(-c3nnc(C(F)(F)C(F)(F)C(=O)O)[nH]3)cc2)cc1 (stereo partly drawn) [Example 115, 3-{5-[4-({(2S)-2-({[trans-4-(Aminomethyl)cyclohexyl]carbonyl}amino)-3-[2′-methyl-4′-(octahydrocyclopenta[b]pyrrol-4-ylcarbamoyl)biphenyl-4-yl]propanoyl}amino)phenyl]-4H-1,2,4-triazol-3-yl}-2,2,3,3-tetrafluoropropanoic acid hydrochloride] | 2.3 | 0.09 |
| COc1cc(C(=O)NC2CCN(C)CC2)cc(OC)c1-c1ccc(C[C@H](NC(=O)[C@H]2CC[C@H](CN)CC2)C(=O)Nc2ccc(-c3nn[nH]n3)cc2)cc1 [Example 117, 4′-[(2S)-2-({[trans-4-(Aminomethyl)cyclohexyl]carbonyl}amino)-3-oxo-3-{[4-(2H-tetrazol-5-yl)phenyl]amino}propyl]-2,6-dimethoxy-N-(1-methylpiperidin-4-yl)biphenyl-4-carboxamide hydrochloride] | 8.9 | 0.18 |
| NC[C@H]1CC[C@H](C(=O)N[C@@H](Cc2ccc(-c3cc(F)c(C(=O)NC4CCNCC4)c(F)c3)cc2)C(=O)Nc2ccc(-c3nn[nH]n3)cc2)CC1 [Example 118, hydrochloride] | 2.9 | 0.11 |
| CCOc1cc(C(=O)NC2CCNCC2)ccc1-c1ccc(C[C@H](NC(=O)[C@H]2CC[C@H](CN)CC2)C(=O)Nc2ccc(-c3nn[nH]n3)cc2)cc1 [Example 119, 4′-[(2S)-2-({[trans-4-(Aminomethyl)cyclohexyl]carbonyl}amino)-3-oxo-3-{[4-(2H-tetrazol-5-yl)phenyl]amino}propyl]-2-ethoxy-N-(piperidin-4-yl)biphenyl-4-carboxamide hydrochloride] | 2.1 | 0.08 |
| NC[C@H]1CC[C@H](C(=O)N[C@@H](Cc2ccc(-c3ccc(C(=O)NC4CCNCC4)c(C(F)(F)F)c3)cc2)C(=O)Nc2ccc(-c3nn[nH]n3)cc2)CC1 [Example 120, 4′-[(2S)-2-({[trans-4-(Aminomethyl)cyclohexyl]carbonyl}amino)-3-oxo-3-{[4-(2H-tetrazol-5-yl)phenyl]amino}propyl]-N-(piperidin-4-yl)-3-(trifluoromethyl)biphenyl-4-carboxamide hydrochloride] | 6.7 | 0.14 |
| COc1c(-c2ccc(C[C@H](NC(=O)[C@H]3CC[C@H](CN)CC3)C(=O)Nc3ccc(-c4nn[nH]n4)cc3)cc2)ccc(C(=O)NC2CCNCC2)c1F [Example 121, 4′-[(2S)-2-({[trans-4-(Aminomethyl)cyclohexyl]carbonyl}amino)-3-oxo-3-{[4-(2H-tetrazol-5-yl)phenyl]amino}propyl]-3-fluoro-2-methoxy-N-(piperidin-4-yl)biphenyl-4-carboxamide hydrochloride] | 1 | 0.007 |
| NC[C@H]1CC[C@H](C(=O)N[C@@H](Cc2ccc(-c3ccc(C(=O)NC4CCNCC4)c(Cl)c3)cc2)C(=O)Nc2ccc(-c3nn[nH]n3)cc2)CC1 [Example 122, 4′-[(2S)-2-({[trans-4-(Aminomethyl)cyclohexyl]carbonyl}amino)-3-oxo-3-{[4-(2H-tetrazol-5-yl)phenyl]amino}propyl]-3-chloro-N-(piperidin-4-yl)biphenyl-4-carboxamide hydrochloride] | 5.2 | 0.16 |
